ChEMBL document CHEMBL4715870, “Synthesis and Structure-Activity Relationship of Tetra-Substituted Cyclohexyl Diol Inhibitors of Proviral Insertion of Moloney Virus (PIM) Kinases” (J Med Chem, 2020)

Tests used:
[1] = physchem; settings: buffer, pH 7.4
[2] = in vitro; settings: human, Caco-2

logD [1]	Papp A→B [2] [×10⁻⁶ cm/s]	SMILES
3	28.8	C[C@H]1C[C@@H](c2ccncc2NC(=O)c2ccc(F)c(-c3c(F)cccc3F)n2)C[C@@H](O)[C@@H]1O
1.9	8.5	C[C@@H]1C[C@H](N)C[C@H](c2ccncc2NC(=O)c2ccc(F)c(-c3c(F)cccc3F)n2)C1 [LGH-447]
